For 62 molecules, IC50 results are on record in patent US7902187B2, “6-substituted 2-(benzimidazolyl)purine and purinone derivatives for immunosuppression” (Wyeth LLC, priority 2006, dated 2011).

A word on the IC50: it is the midpoint of a concentration-inhibition curve.

In the test the target is T1, Jak3 (Homo sapiens, UniProt P52333).
T1 construct: A fragment encoding the catalytic domain of Jak3 (508aa to 1124aa) was ligated with GST at 5′ end; made in house; host or cells: Sf9 insect cells (baculovirus, pFastBac 1)
T1 sequence (P52333 508-1124): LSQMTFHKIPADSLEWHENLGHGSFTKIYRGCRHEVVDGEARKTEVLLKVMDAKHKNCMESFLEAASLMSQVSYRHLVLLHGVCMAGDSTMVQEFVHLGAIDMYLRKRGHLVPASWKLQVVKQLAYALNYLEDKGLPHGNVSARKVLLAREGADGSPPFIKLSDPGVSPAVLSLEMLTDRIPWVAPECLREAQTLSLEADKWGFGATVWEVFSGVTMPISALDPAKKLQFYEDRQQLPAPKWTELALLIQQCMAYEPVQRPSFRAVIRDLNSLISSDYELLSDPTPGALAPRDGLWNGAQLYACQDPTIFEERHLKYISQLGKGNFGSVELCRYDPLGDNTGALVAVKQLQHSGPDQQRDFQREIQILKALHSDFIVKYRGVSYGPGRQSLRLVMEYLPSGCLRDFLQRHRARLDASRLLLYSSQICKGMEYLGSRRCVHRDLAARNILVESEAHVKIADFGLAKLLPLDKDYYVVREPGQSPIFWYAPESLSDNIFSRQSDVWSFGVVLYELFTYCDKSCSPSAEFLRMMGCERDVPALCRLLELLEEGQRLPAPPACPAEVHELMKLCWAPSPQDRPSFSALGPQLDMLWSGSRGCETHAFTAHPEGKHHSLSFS
Kind of test: Jak3 Kinase Assay (HTRF). The class given is biochemical. The settings on record: GST-Jak3 catalytic domain, 1 μM ATP, 60-min incubation; read-out: Jak3 Kinase, IC50 representation. As for the experimental part: Human Jak3 cDNA was amplified by PCR. A fragment encoding the catalytic domain of Jak3 (508aa to 1124aa) was ligated with GST at 5′ end. This fused GST-Jak3 DNA fragment was cloned into the EcoRI site of the donor plasmid pFastBac 1 (Life Technologies #10359-016). The transformation, transposition, and transfection of insect cells (Sf9) were performed according to the manufacture's instructions. The cell lysate containing recombinant GST-Jak3 was used in the kinase assay. Anti-GST antibody (10 μg/ml, Sigma #G1417) was coated onto a 384-well plate at 4° C. overnight. Cell lysate containing GST-Jak3 (1:100 dilution) was added to the anti-GST coated plates, and GST-Jak3 was captured by immobilized anti-GST antibody. Testing compounds and substrate mix (50 mM HEPES, pH 7, 0.5 mM Na3VO4, 25 mM MgCl2, 1 mM DTT, 0.005% BSA, 1 μM ATP, and 4.5 μg/ml biotinyl poly-Glu,Ala,Tyr) were added to the plate to initiate the reaction. After a 60-min incubation, the reaction was stopped by 4 mM EDTA, and phosphorylation of biotinyl poly-Glu,Ala,Tyr was detected using 17 μg/ml Cy5-streptavidin (Amersham, #PA92005) and 2.7 μg/ml Europium-conjugated anti-phosphotyrosine antibody (PerkinElmer #AD0069) using homogeneous time-resolved fluorescence (HTRF) technology.
For `N#Cc1ccc2ncn(-c3nc(NCCCN4CCCCC4)c4[nH]c(=O)n(C5CCOCC5)c4n3)c2c1`, the IC50 was under 100 nM.

In the case of `Cn1c(=O)n([C@H]2CC[C@H](O)CC2)c2nc(-n3cnc4ccc(F)cc43)nc(N3CC[C@H](F)C3)c21`, the 50% inhibitory concentration (IC50) was under 100 nM.

On to `CN1CCN(c2nc(-n3cnc4ccc(C#N)cc43)nc3c2[nH]c(=O)n3C2CCOCC2)CC1`, for which the IC50 was under 100 nM.

For `N#Cc1ccc2ncn(-c3nc(N4CC(C(=O)O)C4)c4[nH]c(=O)n(C5CCOCC5)c4n3)c2c1`, the IC50 is under 100 nM.

Regarding `N#Cc1ccc2ncn(-c3nc(N4CC(F)(F)C4)c4[nH]c(=O)n(C5CCOCC5)c4n3)c2c1`, the IC50 was under 100 nM.

On to `CNC(=O)c1nc(-n2cnc3ccc(F)cc32)nc2c1[nH]c(=O)n2C1CCOc2ccccc21` (centres unmarked), for which the 50% inhibitory concentration (IC50) was under 100 nM.

`Cn1c(=O)n([C@H]2CC[C@H](O)CC2)c2nc(-n3cnc4ccc(F)cc43)nc(N3CCCCC3)c21`: the IC50 was under 100 nM.

As for `COCCCn1c(=O)[nH]c2c(N3CC(F)(F)C3)nc(-n3cnc4ccc(C#N)cc43)nc21`, the IC50 is under 100 nM.

For `COc1ccc(-c2nc(-n3cnc4ccc(F)cc43)nc3c2[nH]c(=O)n3C2CCOCC2)cn1`, the half-inhibitory concentration (IC50) was under 100 nM.

Turning to `CCc1noc(CNc2nc(-n3cnc4ccc(F)cc43)nc3c2[nH]c(=O)n3C2CCOCC2)n1`, the IC50 is under 100 nM.

Turning to `CO[C@H]1CC[C@H](n2c(=O)[nH]c3c(N4CC(F)(F)C4)nc(-n4cnc5ccc(C#N)cc54)nc32)CC1`, the IC50 was under 100 nM.

For the molecule `O=c1[nH]c2c(-c3cccnc3)nc(-n3cnc4ccc(F)cc43)nc2n1C1CCOCC1`, the concentration for half-maximal inhibition (IC50) was under 100 nM.

As to `O=c1[nH]c2c(N[C@@H]3CCC[C@@H]3O)nc(-n3cnc4ccc(F)cc43)nc2n1C1CCOCC1`, the IC50 was under 100 nM.

On to `O=c1[nH]c2c(Oc3ccncc3)nc(-n3cnc4ccc(F)cc43)nc2n1C1CCOCC1`, for which the IC50 was under 100 nM.

Turning to `N#CCNC(=O)c1nc(-n2cnc3ccc(F)cc32)nc2c1[nH]c(=O)n2C1CCOc2ccccc21` (centres unmarked), the concentration for half-maximal inhibition (IC50) is under 100 nM.

For the molecule `N#Cc1ccc2ncn(-c3nc(N4CC(F)(F)C4)c4[nH]c(=O)n(CC5CCOC5)c4n3)c2c1` (centres unmarked), the 50% inhibitory concentration (IC50) was under 100 nM.

For the molecule `O=c1[nH]c2c(NC3CCC3)nc(-n3cnc4ccc(F)cc43)nc2n1C1CCOCC1`, the IC50 was under 100 nM.

Regarding `O=c1[nH]c2c(Cl)nc(-n3cnc4ccc(F)cc43)nc2n1[C@@H]1CCOc2c(F)cccc21`, the half-maximal inhibitory concentration (IC50) was under 100 nM.

Turning to `O=C(c1nc(-n2cnc3ccc(F)cc32)nc2c1[nH]c(=O)n2C1CCOc2ccccc21)N1CCCCC1` (centres unmarked), the IC50 is under 100 nM.

Consider `O=c1[nH]c2c(-c3ccc(F)nc3)nc(-n3cnc4ccc(F)cc43)nc2n1C1CCOCC1`, for which the half-maximal inhibitory concentration (IC50) is under 100 nM.

As for `Cn1c(=O)n(C2CCOCC2)c2nc(-n3cnc4ccc(Cl)cc43)nc(NCC(F)(F)CCl)c21`, the IC50 was under 100 nM.

With `O=c1[nH]c2c(Oc3cccnc3)nc(-n3cnc4ccc(F)cc43)nc2n1C1CCOCC1`, the IC50 is under 100 nM.

On to `N#Cc1ccc2ncn(-c3nc(NC4CCCC4)c4[nH]c(=O)n(C5CCOCC5)c4n3)c2c1`, for which the IC50 was under 100 nM.

`Cn1c(=O)n([C@H]2CC[C@H](O)CC2)c2nc(-n3cnc4ccc(F)cc43)nc(N3CCC(F)(F)CC3)c21`: the IC50 is under 100 nM.

For `N#CCNC(=O)c1nc(-n2cnc3ccc(F)cc32)nc2c1[nH]c(=O)n2C1CCOCC1`, the concentration for half-maximal inhibition (IC50) is under 100 nM.

As for `O=c1[nH]c2c(OC3CCC3)nc(-n3cnc4ccc(F)cc43)nc2n1C1CCOCC1`, the IC50 was under 100 nM.

For `COc1ccc(-c2nc(-n3cnc4ccc(F)cc43)nc3c2[nH]c(=O)n3C2CCOCC2)cc1`, the concentration for half-maximal inhibition (IC50) is under 100 nM.

Regarding `N#Cc1ccc(-c2nc(-n3cnc4ccc(F)cc43)nc3c2[nH]c(=O)n3C2CCOCC2)cc1`, the IC50 was under 100 nM.

For `O=c1[nH]c2c(-c3cncnc3)nc(-n3cnc4ccc(F)cc43)nc2n1C1CCOCC1`, the IC50 was under 100 nM.

For `O=c1[nH]c2c(-c3ccccc3)nc(-n3cnc4ccc(F)cc43)nc2n1C1CCOCC1`, the half-maximal inhibitory concentration (IC50) is under 100 nM.

In the case of `CNC(=O)c1nc(-n2cnc3ccc(F)cc32)nc2c1[nH]c(=O)n2C1CCOCC1`, the IC50 was under 100 nM.

With `CC(C)(C)NS(=O)(=O)c1cccc(-c2nc(-n3cnc4ccc(F)cc43)nc3c2[nH]c(=O)n3C2CCOCC2)c1`, the IC50 is under 100 nM.

With `O=c1[nH]c2c(-c3cccc4[nH]ccc34)nc(-n3cnc4ccc(F)cc43)nc2n1C1CCOCC1`, the half-maximal inhibitory concentration (IC50) was under 100 nM.

For `O=c1[nH]c2c(-c3ccncc3)nc(-n3cnc4ccc(OC(F)(F)F)cc43)nc2n1C1CCOCC1`, the concentration for half-maximal inhibition (IC50) fell in the range of 100 to 1000 nM.

As to `O=C(c1nc(-n2cnc3ccc(F)cc32)nc2c1[nH]c(=O)n2C1CCOCC1)N1CCCCC1`, the IC50 lay within 100 to 1000 nM.

As for `O=c1[nH]c2c(-c3ccc(F)cc3)nc(-n3cnc4ccc(F)cc43)nc2n1C1CCOCC1`, the half-inhibitory concentration (IC50) was in the range of 100 to 1000 nM.

`O=c1[nH]c2c(CO)nc(-n3cnc4ccc(F)cc43)nc2n1C1CCOCC1`: the IC50 fell in the range of 100 to 1000 nM.

`CCOC(=O)c1nc(-n2cnc3ccc(F)cc32)nc2c1[nH]c(=O)n2C1CCOc2ccccc21` (centres unmarked): the half-inhibitory concentration (IC50) was in the range of 100 to 1000 nM.

As to `O=c1[nH]c2c(OCC3CC3)nc(-n3cnc4ccc(F)cc43)nc2n1C1CCOCC1`, the IC50 fell in the range of 100 to 1000 nM.

Regarding `CCOC(=O)c1nc(-n2cnc3ccc(F)cc32)nc2c1[nH]c(=O)n2C1CCOCC1`, the IC50 lay in the range of 100 to 1000 nM.

As to `CCOC(=O)CCc1nc(-n2cnc3ccc(F)cc32)nc2c1[nH]c(=O)n2[C@@H]1CCOc2c(F)cccc21`, the IC50 is 100 to 1000 nM.

For the molecule `O=C(O)c1nc(-n2cnc3ccc(F)cc32)nc2c1[nH]c(=O)n2C1CCOCC1`, the IC50 is 100 to 1000 nM.

For `O=c1[nH]c2c(OC3CCOC3)nc(-n3cnc4ccc(F)cc43)nc2n1C1CCOCC1` (centres unmarked), the 50% inhibitory concentration (IC50) lay in the range of 100 to 1000 nM.

Consider `CO[C@H]1CC[C@H](n2c(=O)[nH]c3c(Cl)nc(-n4cnc5ccc(C#N)cc54)nc32)CC1`, for which the 50% inhibitory concentration (IC50) lay in the range of 100 to 1000 nM.

For `O=c1[nH]c2c(-c3ccccc3)nc(-n3cnc4ccc(F)cc43)nc2n1[C@@H]1CCOc2c(F)cccc21`, the IC50 fell in the range of 100 to 1000 nM.

Take `CC1CCN(c2nc(-n3cnc4ccc(Cl)cc43)nc3c2[nH]c(=O)n3C2CCOCC2)CC1`: the IC50 is 100 to 1000 nM.

`N#Cc1ccc(-c2nc(-n3cnc4ccc(F)cc43)nc3c2[nH]c(=O)n3[C@@H]2CCOc3c(F)cccc32)cc1`: the concentration for half-maximal inhibition (IC50) fell in the range of 100 to 1000 nM.

In the case of `O=c1[nH]c2c(NCc3ccccc3)nc(-n3cnc4ccc(F)cc43)nc2n1C1CCOCC1`, the IC50 was 100 to 1000 nM.

As for `Cc1cccc(-c2nc(-n3cnc4ccc(F)cc43)nc3c2[nH]c(=O)n3C2CCOCC2)c1`, the IC50 lay within 100 to 1000 nM.

Take `O=c1[nH]c2c(C3CCC3)nc(-n3cnc4ccc(F)cc43)nc2n1C1CCOCC1`: the IC50 lay within 100 to 1000 nM.

For the molecule `O=c1[nH]c2c(NCC3CC3)nc(-n3cnc4ccc(F)cc43)nc2n1[C@@H]1CCOc2c(F)cccc21`, the concentration for half-maximal inhibition (IC50) fell in the range of 100 to 1000 nM.

For the molecule `O=c1[nH]c2c(-c3ccccc3)nc(-n3cnc4ccccc43)nc2n1[C@@H]1CCOc2ccc(F)cc21`, the IC50 lay in the range of 100 to 1000 nM.

As for `O=c1[nH]c2c(Cc3ccccc3)nc(-n3cnc4ccc(F)cc43)nc2n1[C@@H]1CCOc2c(F)cccc21`, the IC50 fell in the range of 100 to 1000 nM.

Consider `C[C@H](Nc1nc(-n2cnc3ccc(F)cc32)nc2c1[nH]c(=O)n2C1CCOCC1)c1ccccc1`, for which the IC50 was in the range of 100 to 1000 nM.

On to `O=c1[nH]c2c(-c3ccccc3)nc(-n3cnc4ccccc43)nc2n1C1CCOCC1`, for which the IC50 was 100 to 1000 nM.

Take `O=c1[nH]c2c(-c3ccc(Cl)cc3)nc(-n3cnc4ccc(F)cc43)nc2n1C1CCOCC1`: the IC50 was 100 to 1000 nM.

Turning to `O=c1[nH]c2c(-c3ccc(Cl)cc3)nc(-n3cnc4ccc(F)cc43)nc2n1[C@@H]1CCOc2c(F)cccc21`, the IC50 was in the range of 100 to 1000 nM.

In the case of `CC(C)CNc1nc(-n2cnc3ccc(F)cc32)nc2c1[nH]c(=O)n2[C@@H]1CCOc2c(F)cccc21`, the concentration for half-maximal inhibition (IC50) lay in the range of 100 to 1000 nM.

Turning to `CC(C)Cc1nc(-n2cnc3ccc(F)cc32)nc2c1[nH]c(=O)n2[C@@H]1CCOc2c(F)cccc21`, the IC50 was 100 to 1000 nM.

Consider `O=c1[nH]c2c(-c3cccc(Cl)c3)nc(-n3cnc4ccc(F)cc43)nc2n1C1CCOCC1`, for which the IC50 was in the range of 100 to 1000 nM.

Take `O=c1[nH]c2c(-c3cccc4cnccc34)nc(-n3cnc4ccc(F)cc43)nc2n1C1CCOCC1`: the IC50 lay in the range of 100 to 1000 nM.

In the case of `CCCCc1nc(-n2cnc3ccc(F)cc32)nc2c1[nH]c(=O)n2[C@@H]1CCOc2c(F)cccc21`, the half-inhibitory concentration (IC50) was over 1000 nM.
